In patent US12329158B2, “Large-scale methods of uniformly coating packaging surfaces with a volatile antimicrobial to preserve food freshness” (AGROFRESH INC., priority 2013, dated 2025):

What was measured:
Salmonella enterica = experiment: Volatile assay against bacterial pathogens, MBC (Example 12); type: cell-based; conditions: S. enterica; headspace concentration; 48 hours at 23 C
Procedure: (§1) 12-Well (6.5 mL volume per well) microtiter plates are used for the in vitro inhibition assay for volatile antimicrobial Compound A against additional bacterial pathogens. A 3-mL volume of Nutrient agar is added to each well and allowed to dry before introducing the pathogen. Escherichia coli, Pectobacterium carotovorum, Xanthomonas axonopodis and Salmonella enterica cell suspensions are adjusted to an optical density of 0.2 to 0.35, and further diluted 1/10, and 15 μL is pipetted to the center of each well and tilted to distribute uniformly. A Whatman #1 filter paper (CAT 1001-0155) is placed on the underside of a polyethylene PCR plate sealing film. […] The films with the treated disks are then applied over the inoculated plates and sealed. Plates are inverted, and incubated at 23° C. for 48 hours. After the incubation period, the bacteria colonies are dislodged in sterile water containing tween 80 (0.001%) and the optical density (OD; 600 nm) is determined. Results are summarized in Table 6, where the headspace concentration required to control at least 80% of bacterial growth is reported.

Xanthomonas axonopodis = experiment: as above; type: cell-based; conditions: X. axonopodis; headspace concentration; 48 hours at 23 C
Procedure: as §1

Escherichia coli = experiment: as above; type: cell-based; conditions: E. coli; headspace concentration; 48 hours at 23 C
Procedure: as §1

[1] = system: Pectobacterium carotovorum; experiment: as above; type: cell-based; conditions: P. carotovorum; headspace concentration; 48 hours at 23 C
Procedure: as §1

Botrytis cinerea [2] = experiment: Dose response, sprayed clamshells; strawberries (Example 4); type: in vivo; conditions: spraying
Procedure: Five milligrams of Compound A was dissolved in 1 ml of ethanol prior to being uniformly administered to the interior of the clamshell by painting or spraying, and then dried for 5 minutes. After coating the clamshells with Compound A using various application techniques (i.e., sublimation, spraying, or painting), eight ethanol-washed strawberries were placed in the clamshell with stem end facing downwards. Each strawberry fruit was wounded using a T15 screwdriver tip to a uniform depth of eight mm (8 mm). […] Uninoculated strawberries were removed from their commercial package, and directly transferred into treated clamshells without any washing or inoculation steps.
Treated clamshells lids were closed, and then placed at 1° C. for an initial time period of 5 days. Clamshells were then removed from low temperature, and held for a second time period of 6 days at room temperature where the point of inoculation on the strawberry fruits was assessed for indication of disease incidence reported as a percentage (%). Severity of disease incidence was also reported.
This in vivo assay was used to evaluate the ability of different concentrations of Compound A to volatilize from clamshell in order to control or inhibit fruit infection by pathogenic microorganism, Botrytis cinerea. This experiment was conducted exactly as described in Example 1, with a few exceptions. After equilibrating the clamshell overnight at 21° C., Compound A was administered to the clamshells by spraying only. Compound A was sprayed onto the surface of the clamshells at a final treatment rate of 5 mg/clamshell or 1 mg/clamshell. The clamshells were then permitted to dry for 5 minutes. Strawberries were inoculated with Botrytis cinerea, placed within the clamshells for the initial time period (i.e., 5 days), and assessed for disease incidence and severity over the second time period (i.e., 6 days) as described in Example 1.

Botrytis cinerea [3] = experiment: Volatilization from treated clamshells onto inoculated agar plates (Example 2); type: cell-based
Procedure: An in vitro assay was used to evaluate the ability of Compound A to volatilize from a clamshell to control fungal pathogenic infection when applied to the clamshell by various application techniques. Multiple empty 1-lb PET clamshells (ProducePackaging.com, #036QT) were placed inside triplicate air-tight 36 L chamber (Fisher Scientific, Catalogue #08-642-23C) fitted with a bulkhead septum port (Swagelok, SS-401-61, Solon, OH).
Compound A headspace was permitted to equilibrate overnight at 21° C.
After spraying or painting, the clamshell was then permitted to dry for 5 minutes. After coating the clamshells with Compound A using various applications (i.e., sublimation, spraying, or painting), 10-cm Petri plates containing half strength Potato Dextrose Agar were inoculated with 1 μL of 1×10^5 spores/ml Botrytis cinerea spore suspension. The inoculated petri plates were then sealed with a breathable film (AeraSeal; P/N: B-100, Excel Scientific, Victorville, CA), and placed inside the treated clamshell.
(Series I). After incubation, plates were removed and cultures were evaluated for percent growth relative to a control based on measurement of fungal colony diameter (mm).
Meanwhile, freshly prepared inoculated plates were placed inside the clamshell for an additional three (3) days of incubation (Series 2). This process, where freshly prepared inoculated plates were placed inside the clamshell, was repeated twice more, to produce a 12 full day evaluation of 4 series of 3 days each.

[4] = Inoculated Fruit, 1 mg/clamshell, Day 0
[5] = Inoculated Fruit, 1 mg/clamshell, Day 1
[6] = Inoculated Fruit, 1 mg/clamshell, Day 2
[7] = Inoculated Fruit, 1 mg/clamshell, Day 3
[8] = Inoculated Fruit, 1 mg/clamshell, Day 4
[9] = Inoculated Fruit, 1 mg/clamshell, Day 5
[10] = Inoculated Fruit, 1 mg/clamshell, Day 6
[11] = Inoculated Fruit, 5 mg/clamshell, Day 0
[12] = Inoculated Fruit, 5 mg/clamshell, Day 1
[13] = Inoculated Fruit, 5 mg/clamshell, Day 2
[14] = Inoculated Fruit, 5 mg/clamshell, Day 3
[15] = Inoculated Fruit, 5 mg/clamshell, Day 4
[16] = Inoculated Fruit, 5 mg/clamshell, Day 5
[17] = Inoculated Fruit, 5 mg/clamshell, Day 6
[18] = Uninoculated Fruit, 5 mg/clamshell, Day 0
[19] = Uninoculated Fruit, 5 mg/clamshell, Day 1
[20] = Uninoculated Fruit, 5 mg/clamshell, Day 2
[21] = Uninoculated Fruit, 5 mg/clamshell, Day 6

## OB1OCc2cc(F)ccc21 [Compound A, 5-fluoro-1,3-dihydro-1-hydroxy-2,1-benzoxaborole]
Salmonella enterica
  Rate (mg/L) offering at least 80% control: 17.9 mg/L
Xanthomonas axonopodis
  Rate (mg/L) offering at least 80% control: 4.5 mg/L
Escherichia coli
  Rate (mg/L) offering at least 80% control: 35.7 mg/L
[1]
  Rate (mg/L) offering at least 80% control: 2.2 mg/L
Botrytis cinerea [2]; [4]
  Gray Mold Incidence (%): 0.0%
  Gray Mold Severity (0-4): 0.0
Botrytis cinerea [2]; [5]
  Gray Mold Incidence (%): 0.0%
  Gray Mold Severity (0-4): 0.0
Botrytis cinerea [2]; [6]
  Gray Mold Incidence (%): 1.3%
  Gray Mold Severity (0-4): 0.0
Botrytis cinerea [2]; [7]
  Gray Mold Incidence (%): 3.8%
  Gray Mold Severity (0-4): 0.1
Botrytis cinerea [2]; [8]
  Gray Mold Incidence (%): 11.3%
  Gray Mold Severity (0-4): 0.2
Botrytis cinerea [2]; [9]
  Gray Mold Incidence (%): 36.3%
  Gray Mold Severity (0-4): 0.6
Botrytis cinerea [2]; [10]
  Gray Mold Incidence (%): 52.5%
  Gray Mold Severity (0-4): 1.5
Botrytis cinerea [2]; [11]
  Gray Mold Incidence (%): 0.0%
  Gray Mold Severity (0-4): 0.0
Botrytis cinerea [2]; [12]
  Gray Mold Incidence (%): 0.0%
  Gray Mold Severity (0-4): 0.0
Botrytis cinerea [2]; [13]
  Gray Mold Incidence (%): 0.0%
  Gray Mold Severity (0-4): 0.0
Botrytis cinerea [2]; [14]
  Gray Mold Incidence (%): 0.0%
  Gray Mold Severity (0-4): 0.0
Botrytis cinerea [2]; [15]
  Gray Mold Incidence (%): 0.0%
  Gray Mold Severity (0-4): 0.0
Botrytis cinerea [2]; [16]
  Gray Mold Incidence (%): 0.0%
  Gray Mold Severity (0-4): 0.0
Botrytis cinerea [2]; [17]
  Gray Mold Incidence (%): 0.0%
  Gray Mold Severity (0-4): 0.0
Botrytis cinerea [2]; Uninoculated Fruit, 1 mg/clamshell, Day 0
  Gray Mold Incidence (%): 0.0%
Botrytis cinerea [2]; Uninoculated Fruit, 1 mg/clamshell, Day 1
  Gray Mold Incidence (%): 1.9%
Botrytis cinerea [2]; Uninoculated Fruit, 1 mg/clamshell, Day 2
  Gray Mold Incidence (%): 21.6%
Botrytis cinerea [2]; Uninoculated Fruit, 1 mg/clamshell, Day 3
  Gray Mold Incidence (%): 89.5%
Botrytis cinerea [2]; Uninoculated Fruit, 1 mg/clamshell, Day 4
  Gray Mold Incidence (%): 100.0%
Botrytis cinerea [2]; Uninoculated Fruit, 1 mg/clamshell, Day 5
  Gray Mold Incidence (%): 100.0%
Botrytis cinerea [2]; Uninoculated Fruit, 1 mg/clamshell, Day 6
  Gray Mold Incidence (%): 100.0%
Botrytis cinerea [2]; [18]
  Gray Mold Incidence (%): 0.5%
  Gray Mold Severity (0-4): 0.1
Botrytis cinerea [2]; [19]
  Gray Mold Incidence (%): 0.5%
  Gray Mold Severity (0-4): 0.1
Botrytis cinerea [2]; [20]
  Gray Mold Incidence (%): 0.9%
  Gray Mold Severity (0-4): 0.3
Botrytis cinerea [2]; Uninoculated Fruit, 5 mg/clamshell, Day 3
  Gray Mold Incidence (%): 3.3%
Botrytis cinerea [2]; Uninoculated Fruit, 5 mg/clamshell, Day 4
  Gray Mold Incidence (%): 16.2%
Botrytis cinerea [2]; Uninoculated Fruit, 5 mg/clamshell, Day 5
  Gray Mold Incidence (%): 31.9%
Botrytis cinerea [2]; [21]
  Gray Mold Incidence (%): 78.5%
  Gray Mold Severity (0-4): 3.5
Botrytis cinerea [3]; Paint, 0.2 mg/clamshell, Series 1 (0 to 3 days)
  Mycelial Growth Inhibition (%): 3.4%
Botrytis cinerea [3]; Paint, 1 mg/clamshell, Series 1 (0 to 3 days)
  Mycelial Growth Inhibition (%): 100.0%
Botrytis cinerea [3]; Paint, 1 mg/clamshell, Series 2 (3 to 6 days)
  Mycelial Growth Inhibition (%): 18.8%
Botrytis cinerea [3]; Paint, 5 mg/clamshell, Series 1 (0 to 3 days)
  Mycelial Growth Inhibition (%): 100.0%
Botrytis cinerea [3]; Paint, 5 mg/clamshell, Series 2 (3 to 6 days)
  Mycelial Growth Inhibition (%): 100.0%
Botrytis cinerea [3]; Paint, 5 mg/clamshell, Series 3 (6 to 9 days)
  Mycelial Growth Inhibition (%): 57.5%
Botrytis cinerea [3]; Paint, 5 mg/clamshell, Series 4 (9 to 12 days)
  Mycelial Growth Inhibition (%): 44.7%
Botrytis cinerea [3]; Spray, 0.2 mg/clamshell, Series 1 (0 to 3 days)
  Mycelial Growth Inhibition (%): 81.2%
Botrytis cinerea [3]; Spray, 1 mg/clamshell, Series 1 (0 to 3 days)
  Mycelial Growth Inhibition (%): 100.0%
Botrytis cinerea [3]; Spray, 1 mg/clamshell, Series 2 (3 to 6 days)
  Mycelial Growth Inhibition (%): 18.6%
Botrytis cinerea [3]; Spray, 1 mg/clamshell, Series 3 (6 to 9 days)
  Mycelial Growth Inhibition (%): 0.0%
Botrytis cinerea [3]; Spray, 5 mg/clamshell, Series 1 (0 to 3 days)
  Mycelial Growth Inhibition (%): 100.0%
Botrytis cinerea [3]; Spray, 5 mg/clamshell, Series 2 (3 to 6 days)
  Mycelial Growth Inhibition (%): 100.0%
Botrytis cinerea [3]; Spray, 5 mg/clamshell, Series 3 (6 to 9 days)
  Mycelial Growth Inhibition (%): 61.2%
Botrytis cinerea [3]; Spray, 5 mg/clamshell, Series 4 (9 to 12 days)
  Mycelial Growth Inhibition (%): 64.9%
Botrytis cinerea [3]; Sublimation, 0.2 mg/clamshell, Series 1 (0 to 3 days)
  Mycelial Growth Inhibition (%): 90.9%
Botrytis cinerea [3]; Sublimation, 0.2 mg/clamshell, Series 3 (6 to 9 days)
  Mycelial Growth Inhibition (%): 0.0%
Botrytis cinerea [3]; Sublimation, 1 mg/clamshell, Series 1 (0 to 3 days)
  Mycelial Growth Inhibition (%): 90.1%
Botrytis cinerea [3]; Sublimation, 5 mg/clamshell, Series 1 (0 to 3 days)
  Mycelial Growth Inhibition (%): 100.0%
Botrytis cinerea [3]; Sublimation, 5 mg/clamshell, Series 2 (3 to 6 days)
  Mycelial Growth Inhibition (%): 100.0%
Botrytis cinerea [3]; Sublimation, 5 mg/clamshell, Series 3 (6 to 9 days)
  Mycelial Growth Inhibition (%): 83.1%
Botrytis cinerea [3]; Sublimation, 5 mg/clamshell, Series 4 (9 to 12 days)
  Mycelial Growth Inhibition (%): 84.4%
